Experimental data from US7601868B2, “Amine derivative” (Takeda Pharmaceutical Company Limited, priority 2003, dated 2009).

system: not given; experiment: not given; conditions: not given

| melting point | Compound |
| --- | --- |
| 76 to 77 °C | CCCCCc1ccc(C(=O)NCCc2ccc(C(C)N3CCCC3)cc2)cc1 (stereo not drawn) [Example 38, 4-pentyl-N-(2-{4-[1-(1-pyrrolidinyl)ethyl]phenyl}ethyl)benzamide] |
| 143 to 145 °C | CN1CCCC1c1ccc(CCNC(=O)c2ccc(OCC3CC3)cc2)cc1 (stereo not drawn) [Example 138, 4-cyclopropylmethoxy-N-{2-[4-(1-methyl-2-pyrrolidinyl)phenyl]ethyl}benzamide] |
| 165 to 167 °C | COc1ccc(-c2ccc(C(=O)NCCc3ccc(C4CCCN4C)cc3)cc2)cc1 (stereo not drawn) [Example 139, 4′-methoxy-N-{2-[4-(1-methyl-2-pyrrolidinyl)phenyl]ethyl}[1,1′-biphenyl]-4-carboxamide] |
| 160 to 163 °C | Cc1ccc(-c2ccc(C(=O)NCCc3ccc(C(C)N4CCCC4)cc3)cc2)cc1 (stereo not drawn) [Example 14, 4′-methyl-N-(2-{4-[1-(1-pyrrolidinyl)ethyl]phenyl}ethyl)[1,1′-biphenyl]-4-carboxamide] |
| 66 to 68 °C | O=C(NCCc1ccc(CN2CCCC2)cc1)c1ccc(OCCC2CC2)cc1F [Example 141, 4-(2-cyclopropylethoxy)-2-fluoro-N-{2-[4-(1-pyrrolidinylmethyl)phenyl]ethyl}benzamide] |

target: T1, SLC-1 (Homo sapiens, UniProt Q99705); experiment: Antagonistic activity using GTPγS binding assay (SLC-1 expression CHO cell membrane fraction, MCH-stimulated); type: biochemical, human/rat; conditions: [35S]-GTPγS binding to SLC-1 expression CHO cell membrane fraction in the presence of MCH, 25° C., 1 hr; read-out: Inhibitory activity (IC50: nM)
T1 construct: expressed in transfected cells; host or cells: CHO cells (human SLC-1 clone 57 / rat SLC-1 clone 44), membrane fraction
T1 sequence (Q99705 whole entry, species assumed): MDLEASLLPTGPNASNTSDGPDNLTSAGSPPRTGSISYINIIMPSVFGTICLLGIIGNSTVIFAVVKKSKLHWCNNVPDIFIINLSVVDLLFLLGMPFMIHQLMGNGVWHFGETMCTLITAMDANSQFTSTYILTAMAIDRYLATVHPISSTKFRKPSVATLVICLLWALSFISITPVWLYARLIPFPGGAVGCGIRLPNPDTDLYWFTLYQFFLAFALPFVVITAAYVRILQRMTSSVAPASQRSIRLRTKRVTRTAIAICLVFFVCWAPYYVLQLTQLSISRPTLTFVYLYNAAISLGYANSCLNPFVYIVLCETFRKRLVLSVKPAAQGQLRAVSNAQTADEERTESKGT
Experimental: Determination of Antagonistic Activity of Test Compound Using GTP γ S Binding Assay
Using human SLC-1 expression CHO cell clone 57 and rat SLC-1 expression CHO cell clone 44 described in WO01/82925, SLC-1 expression CHO cell membrane fractions were prepared by the following method. In phosphate buffered saline (pH 7.4) supplemented with 5 mM EDTA (ethylenediamine tetraacetic acid) were suspended human and rat SLC-1 expression CHO cells (1×10^8) and centrifuged. Homogenate buffer (10 ml, 10 mM NaHCO3, 5 mM EDTA, pH 7.5) was added to the pellets of the cells and, using Polytron Homogeniser, the mixture was homogenated. The supernatant obtained after centrifugation at 400×g for 15 min was further centrifuged at 100,000×g for 1 hr to give precipitate of the membrane fraction. […]
The antagonistic activity of the test compound was determined as follows. […] Liquid scintillator (50 ml) was added to the glass filter and the residual radioactivity was determined by a liquid scintillation counter. Binding inhibition (%)=(radioactivity upon addition of test compound and MCH−radioactivity upon addition of DMSO solution)/(radioactivity upon addition of MCH−radioactivity upon addition of DMSO solution)×100
From the binding inhibition (%), IC50 of the test compound was calculated.

| IC50 | Compound |
| --- | --- |
| 3 nM | CC(c1ccc(CCNC(=O)c2ccc(-c3ccc(Cl)cc3)cc2)cc1)N1CCCCCC1 (stereo not drawn) [Example 67, N-(2-{4-[1-(1-azepanyl)ethyl]phenyl}ethyl)-4′-chloro[1,1′-biphenyl]-4-carboxamide] |
